In patent US5753617A, “Peptide inhibitors of cellular adhesion” (Centocor, Inc., priority 1995, dated 1998) one finds ring closure, yield of all isomers and IC50 data, which are given here for seven compounds.

Like-named read-outs stand apart in the source and are kept apart here. Where a SMILES comes first, the peptide text is derived from it. Bridges are numbered along the chain shown (N, C = ends). [ ]: non-standard residue; d: D form.

For data set [1] the following is noted: disulfide bond, water.
The target of data set [2] is T1, P-selectin (Homo sapiens, UniProt P16109).
T1 construct: P-selectin is isolated from human platelet lysates; from tissue; host or cells: human platelets (outdated platelet packs from a blood bank)
T1 sequence (P16109 42-830): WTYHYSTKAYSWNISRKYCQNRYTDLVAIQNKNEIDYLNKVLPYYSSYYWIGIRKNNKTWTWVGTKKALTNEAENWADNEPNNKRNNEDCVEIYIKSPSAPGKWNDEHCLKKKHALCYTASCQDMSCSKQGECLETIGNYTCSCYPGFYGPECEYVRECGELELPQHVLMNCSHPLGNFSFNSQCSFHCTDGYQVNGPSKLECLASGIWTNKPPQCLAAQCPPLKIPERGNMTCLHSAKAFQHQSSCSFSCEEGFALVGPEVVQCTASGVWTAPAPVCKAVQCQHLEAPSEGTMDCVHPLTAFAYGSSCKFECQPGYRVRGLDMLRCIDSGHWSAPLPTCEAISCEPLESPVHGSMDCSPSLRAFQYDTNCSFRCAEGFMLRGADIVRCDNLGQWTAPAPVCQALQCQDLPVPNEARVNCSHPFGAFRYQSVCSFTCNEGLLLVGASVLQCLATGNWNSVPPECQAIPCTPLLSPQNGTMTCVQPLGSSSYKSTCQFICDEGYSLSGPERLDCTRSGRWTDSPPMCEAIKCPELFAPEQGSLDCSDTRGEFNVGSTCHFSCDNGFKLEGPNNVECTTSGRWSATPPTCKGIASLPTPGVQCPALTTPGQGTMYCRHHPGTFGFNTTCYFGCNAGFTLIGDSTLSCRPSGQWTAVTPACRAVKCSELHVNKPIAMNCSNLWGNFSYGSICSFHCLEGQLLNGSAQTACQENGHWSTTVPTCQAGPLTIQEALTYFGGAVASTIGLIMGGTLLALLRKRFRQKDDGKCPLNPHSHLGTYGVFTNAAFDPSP
The experiment in a line: Inhibition of human neutrophil adhesion to purified P-selectin immobilized on plastic wells. In kind it is cell-based. As to conditions: inhibiting the binding of human neutrophils to P-selectin. The gist of the method:
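Isolated human neutrophils (2×10^5 per well) in HBSS with Ca2+/Mg2+ and HSA added to wells coated overnight at 4° C with platelet-derived P-selectin (5 micrograms/mL), HSA-blocked; 20 min at 22° C. Nonadherent cells removed by inverted centrifugation at 150 g; adherent cells quantified by myeloperoxidase activity.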

Compound `CC(C)[C@@H](NC(=O)[C@@H](Cc1c[nH]c2ccccc12)NC(=O)[C@H](NC(=O)[C@@H](Cc1c[nH]c2ccccc12)NC(=O)[C@H]1CSSC[C@@H](NC(=O)[C@@H](CCCCN)NC(=O)[C@H](N)CCCNC(=N)N)C(=O)NCC(=O)N[C@@H](Cc2ccccc2)C(=O)N1)[C@H](C)O)C(N)=O` registered a ring closure, yield of all isomers in data set [1] (from CC(C)[C@@H](NC(=O)[C@@H](Cc1c[nH]c2ccccc12)NC(=O)[C@H](NC(=O)[C@@H](Cc1c[nH]c2ccccc12)NC(=O)[C@@H](CS)NC(=O)[C@H](Cc1ccccc1)NC(=O)CNC(=O)[C@@H](CS)NC(=O)[C@@H](CCCCN)NC(=O)[C@H](N)CCCNC(=N)N)[C@H](C)O)C(N)=O, DMSO, 0.253 mM, 16.0 h) of 10.8%.
Take `CC(C)[C@H](NC(=O)[C@@H](Cc1c[nH]c2ccccc12)NC(=O)[C@H](NC(=O)[C@@H](Cc1c[nH]c2ccccc12)NC(=O)[C@H]1CSSC[C@@H](NC(=O)[C@@H](CCCCN)NC(=O)[C@H](N)CCCNC(=N)N)C(=O)NCC(=O)N[C@@H](Cc2ccccc2)C(=O)N1)[C@H](C)O)C(N)=O`: in data set [1] (from CC(C)[C@H](NC(=O)[C@@H](Cc1c[nH]c2ccccc12)NC(=O)[C@H](NC(=O)[C@@H](Cc1c[nH]c2ccccc12)NC(=O)[C@@H](CS)NC(=O)[C@H](Cc1ccccc1)NC(=O)CNC(=O)[C@@H](CS)NC(=O)[C@@H](CCCCN)NC(=O)[C@H](N)CCCNC(=N)N)[C@H](C)O)C(N)=O, DMSO, 0.161 mM), the ring closure, yield of all isomers came to 9.4%.
A word on the IC50: it is the midpoint of a concentration-inhibition curve. `CC[C@@H](C)[C@H]1NC(=O)[C@H](NC(=O)[C@H](N)CCCNC(=N)N)CSSC[C@H](C(=O)N[C@@H](C(=O)N[C@H](Cc2c[nH]c3ccccc23)C(=O)N[C@@H](C(=O)N[C@H](Cc2c[nH]c3ccccc23)C(=O)N[C@@H](C(N)=O)C(C)C)[C@H](C)O)[C@H](C)CC)NC(=O)CNC1=O` [(4)] (H-[dR][dC][dI]G[dC][dI][dW][dT][dW][dV]-NH2; disulfide 2-5) showed a ring closure, yield of all isomers in data set [1] (from CC[C@@H](C)[C@@H](NC(=O)[C@@H](CS)NC(=O)[C@H](N)CCCNC(=N)N)C(=O)NCC(=O)N[C@H](CS)C(=O)N[C@@H](C(=O)N[C@H](Cc1c[nH]c2ccccc12)C(=O)N[C@@H](C(=O)N[C@H](Cc1c[nH]c2ccccc12)C(=O)N[C@@H](C(N)=O)C(C)C)[C@H](C)O)[C@H](C)CC, DMSO, 0.405 mM, 16.0 h) of 43.1%. For the same compound, the IC50 in data set [2] is 41 µM.
The compound `CC(C)[C@H](NC(=O)[C@H](Cc1c[nH]c2ccccc12)NC(=O)[C@@H](NC(=O)[C@H](Cc1c[nH]c2ccccc12)NC(=O)[C@@H]1CSSC[C@H](NC(=O)[C@H](CCCCN)NC(=O)[C@@H](N)CCCNC(=N)N)C(=O)NCC(=O)NCC(=O)N1)[C@@H](C)O)C(N)=O` [(9)] (H-RKCGGCWTWV-NH2; disulfide 3-6) showed a ring closure, yield of all isomers in data set [1] (from CC(C)[C@H](NC(=O)[C@H](Cc1c[nH]c2ccccc12)NC(=O)[C@@H](NC(=O)[C@H](Cc1c[nH]c2ccccc12)NC(=O)[C@H](CS)NC(=O)CNC(=O)CNC(=O)[C@H](CS)NC(=O)[C@H](CCCCN)NC(=O)[C@@H](N)CCCNC(=N)N)[C@@H](C)O)C(N)=O, DMSO, 0.456 mM, 16.0 h) of 4.4%. In data set [2], this compound returned an IC50 of 3 µM.
Consider `CC(C)[C@@H](NC(=O)[C@@H](Cc1c[nH]c2ccccc12)NC(=O)[C@H](NC(=O)[C@@H](Cc1c[nH]c2ccccc12)NC(=O)[C@H]1CSSC[C@@H](NC(=O)[C@@H](CCCCN)NC(=O)[C@H](N)CCCNC(=N)N)C(=O)N[C@H](C)C(=O)N[C@@H](Cc2ccccc2)C(=O)N1)[C@H](C)O)C(N)=O` [(11)] (H-[dR][dK][dC][dA]F[dC][dW][dT][dW][dV]-NH2; disulfide 3-6), for which the ring closure, yield of all isomers in data set [1] (from CC(C)[C@@H](NC(=O)[C@@H](Cc1c[nH]c2ccccc12)NC(=O)[C@H](NC(=O)[C@@H](Cc1c[nH]c2ccccc12)NC(=O)[C@@H](CS)NC(=O)[C@H](Cc1ccccc1)NC(=O)[C@@H](C)NC(=O)[C@@H](CS)NC(=O)[C@@H](CCCCN)NC(=O)[C@H](N)CCCNC(=N)N)[C@H](C)O)C(N)=O, air, Cu wire, dilute AcOH/NH4OH pH 8.5, 3.08 mM) is 2.4%. The IC50 in data set [2] stood at 7 µM.
`CC(C)[C@@H](NC(=O)[C@@H](Cc1c[nH]c2ccccc12)NC(=O)[C@H](NC(=O)[C@@H](Cc1c[nH]c2ccccc12)NC(=O)[C@H]1CSSC[C@@H](NC(=O)[C@@H](CCCCN)NC(=O)[C@H](N)CCCNC(=N)N)C(=O)N[C@H](Cc2ccccc2)C(=O)NCC(=O)N1)[C@H](C)O)C(N)=O` [(12)] (H-[dR][dK][dC][dF]G[dC][dW][dT][dW][dV]-NH2; disulfide 3-6): the ring closure, yield of all isomers in data set [1] (from CC(C)[C@@H](NC(=O)[C@@H](Cc1c[nH]c2ccccc12)NC(=O)[C@H](NC(=O)[C@@H](Cc1c[nH]c2ccccc12)NC(=O)[C@@H](CS)NC(=O)CNC(=O)[C@@H](Cc1ccccc1)NC(=O)[C@@H](CS)NC(=O)[C@@H](CCCCN)NC(=O)[C@H](N)CCCNC(=N)N)[C@H](C)O)C(N)=O, DMSO, 0.255 mM, 16.0 h) worked out at 18.7%. The compound also came in with an IC50 in data set [2] of 48 µM.
In the case of `CC(C)[C@@H](NC(=O)[C@@H](Cc1c[nH]c2ccccc12)NC(=O)[C@H](NC(=O)[C@@H](Cc1c[nH]c2ccccc12)NC(=O)[C@H]1CSSC[C@@H](NC(=O)[C@@H](CCCCN)NC(=O)[C@H](N)CCCNC(=N)N)C(=O)NCC(=O)N[C@H](Cc2ccccc2)C(=O)N1)[C@H](C)O)C(N)=O` [(13)] (H-[dR][dK][dC]G[dF][dC][dW][dT][dW][dV]-NH2; disulfide 3-6), the ring closure, yield of all isomers in data set [1] (from CC(C)[C@@H](NC(=O)[C@@H](Cc1c[nH]c2ccccc12)NC(=O)[C@H](NC(=O)[C@@H](Cc1c[nH]c2ccccc12)NC(=O)[C@@H](CS)NC(=O)[C@@H](Cc1ccccc1)NC(=O)CNC(=O)[C@@H](CS)NC(=O)[C@@H](CCCCN)NC(=O)[C@H](N)CCCNC(=N)N)[C@H](C)O)C(N)=O, DMSO, 0.242 mM, 16.0 h) is 10.7%. The same compound registered an IC50 in data set [2] of 50 µM.
